The results in this text go back to ChEMBL document CHEMBL5528040, “Design and Synthesis of Novel 3-Nitro-1H-1,2,4-triazole-1,2,3-triazole-1,4-disubstituted Analogs as Promising Antitrypanosomatid Agents: Evaluation of In Vitro Activity against Chagas Disease and Leishmaniasis” (J Med Chem, 2024).

Series [1] can be described thus: Mutagenicity in Salmonella typhimurium TA98 assessed as number of revertant colonies at 10 ug per plate incubated for 90 mins by AMES test (reference value: 22.67 +/- 0.58). The series is classed as toxicity, Salmonella enterica subsp. enterica serovar Typhimurium. The following applies: in vivo, 1.5 h, dose 10 µg.
A short description of series [2]: Cytotoxicity against monkey LLC-MK2 cells incubated for 72 hrs by MTT assay. As to conditions: rhesus monkey. The series is classed as toxicity, cell-based, Macaca mulatta. (In general: Formazan colour is commonly taken as a measure of viable cells.)
Series [3] is described as follows: Selectivity index, ratio of CC50 for cytotoxicity against monkey LLC-MK2 cells to IC50 for antitrypanosomal activity against Trypanosoma cruzi Tulahuen amastigotes transfected with Escherichia coli beta-galactosidase LacZ gene infected in monkey LLC-MK2 cells. The series is classed as toxicity, cell-based. The following applies: read-out: Ratio CC50/IC50.
The test system of a further series is Leishmania amazonensis. As to the kind of experiment: Antileishmanial activity against Leishmania amazonensis IFLA/BR/1967/PH8 amastigotes infected in murine peritoneal macrophages incubated for 24 hrs by Giemsa staining based analysis. The series is classed as functional, organism-based. The following applies: IFLA/BR/1967/PH8, Peritoneal macrophage.
Series [4] has as its system Trypanosoma cruzi. As to the kind of experiment: Antitrypanosomal activity against Trypanosoma cruzi Tulahuen amastigotes transfected with Escherichia coli beta-galactosidase LacZ gene infected in monkey LLC-MK2 cells assessed as inhibition of amastigotes growth incubated for 72 hrs by absorbance based microplate reader analysis. The series is classed as functional, organism-based. As to conditions: LLC-MK2, 72 h.

Series [5] can be described thus: Substrate activity at Trypanosoma cruzi type I nitro reductase assessed as reduction in NADH incubated for 120 sec by spectrophotometric analysis.
Series [6] relates to Trypanosoma cruzi. Briefly: Potency index, ratio of Benznidazole IC50 to test compound IC50 for antitrypanosomal activity against Trypanosoma cruzi Tulahuen amastigotes transfected with Escherichia coli beta-galactosidase LacZ gene infected in monkey LLC-MK2 cells assessed as inhibition of amastigotes growth incubated for 72 hrs by absorbance based microplate reader analysis. The series is classed as functional.

The nature of series [7]: Mutagenicity in Salmonella typhimurium TA100 assessed as number of revertant colonies at 2.5 ug per plate incubated for 90 mins by AMES test (reference value: 88.00 +/- 2.65). The series is classed as toxicity, Salmonella enterica subsp. enterica serovar Typhimurium. The following applies: in vivo, 1.5 h, dose 2.5 µg.

With `Nc1ccc([N+](=O)[O-])cc1N`, in series [1], the Activity is listed as 253.

In general, CC50 refers to the concentration at which the toxic effect on the cells reaches its halfway point. The IC50 is the concentration at which inhibition is half-maximal. The compound `O=C(O)c1ccc(-n2cc(Cn3cnc([N+](=O)[O-])n3)nn2)cc1` registered a 50% cytotoxic concentration (CC50) at 72 h in series [2] of more than 50 µM. Further, the selectivity ratio in series [3] was more than 1. For the same compound, the IC50 was 4.7 µM with Leishmania amazonensis and more than 50 µM with Trypanosoma cruzi [4].

Turning to `O=[N+]([O-])c1ncn(Cc2cn(-c3ccc(F)c(F)c3)nn2)n1`, the CC50 at 72 h in series [2] was more than 50 µM. Besides, the selectivity ratio in series [3] is more than 4.4. The figures for the IC50 with Leishmania amazonensis and in the series with Trypanosoma cruzi [4] were 4.7 µM and 22.6 µM, respectively.

In series [2], `O=[N+]([O-])c1ncn(Cc2cn(-c3cccc(C(F)(F)F)c3)nn2)n1` came in with a cytotoxic concentration (CC50) at 72 h of more than 50 µM. In addition, in series [3], the selectivity ratio is more than 17.2. Also, the IC50 in the series on Leishmania amazonensis worked out at 4.7 µM; with Trypanosoma cruzi [4], 5.8 µM.

The pIC50 is −log10 of the IC50, conventionally taken in molar units. With `COc1cc(OC)cc(-n2cc(Cn3cnc([N+](=O)[O-])n3)nn2)c1`, in series [2], the CC50 at 72 h was more than 50 µM. Also, in series [3], the selectivity ratio was more than 227. In addition, the values for the IC50 in the series on Leishmania amazonensis and in the series on Trypanosoma cruzi [4] were 4.7 µM and 0.22 µM, respectively. Moreover, the pIC50 in series [5] turned out to be 6.65.

`COc1ccc(-n2cc(Cn3cnc([N+](=O)[O-])n3)nn2)cc1OC` registered a CC50 at 72 h in series [2] of more than 50 µM. In addition, the selectivity ratio in series [3] is more than 44.6. The IC50 in the series with Leishmania amazonensis was 4.7 µM; in the series with Trypanosoma cruzi [4] it was 1.12 µM. Also, the pIC50 in series [5] amounted to 5.95.

Compound `CSc1ccc(-n2cc(Cn3cnc([N+](=O)[O-])n3)nn2)cc1` gave a CC50 at 72 h in series [2] of more than 50 µM. Moreover, in series [3], the selectivity ratio was more than 238. Moreover, the IC50 with Leishmania amazonensis is 4.7 µM; in the series with Trypanosoma cruzi [4] it was 0.21 µM. Also, the pIC50 in series [5] was 6.67.

For `CCOC(=O)c1ccc(-n2cc(Cn3cnc([N+](=O)[O-])n3)nn2)cc1`, the CC50 at 72 h in series [2] is more than 50 µM. Also, the selectivity ratio in series [3] is more than 1.3. Besides, the IC50 with Leishmania amazonensis is 4.7 µM; in the series with Trypanosoma cruzi [4], 38.4 µM.

In series [2], `CS(=O)(=O)c1ccc(-n2cc(Cn3cnc([N+](=O)[O-])n3)nn2)cc1` showed a CC50 at 72 h of more than 50 µM. In series [3], the selectivity ratio was more than 1. For the same compound, the results for the IC50 in the series on Leishmania amazonensis and with Trypanosoma cruzi [4] were 4.7 µM and more than 50 µM, respectively.

Compound `O=[N+]([O-])c1ccc(-n2cc(Cn3cnc([N+](=O)[O-])n3)nn2)cc1` displayed a CC50 at 72 h in series [2] of more than 50 µM. Further, in series [3], the selectivity ratio is more than 82. Further, the IC50 with Leishmania amazonensis is 4.7 µM; with Trypanosoma cruzi [4] it was 0.61 µM. Also, the pIC50 in series [5] is 6.21.

With `COc1cccc(-n2cc(Cn3cnc([N+](=O)[O-])n3)nn2)c1`, the CC50 at 72 h in series [2] is more than 50 µM. Moreover, the selectivity ratio in series [3] was more than 6.3. In addition, the IC50 in the series with Leishmania amazonensis stood at 4.7 µM; with Trypanosoma cruzi [4] it was 7.93 µM.

For the compound `O=[N+]([O-])c1ncn(Cc2cn(-c3ccc(Cl)c(Cl)c3)nn2)n1`, the CC50 at 72 h in series [2] was more than 50 µM. Moreover, the selectivity ratio in series [3] is more than 454. The values for the IC50 in the series on Leishmania amazonensis and in the series on Trypanosoma cruzi [4] were 4.7 µM and 0.11 µM, respectively. Moreover, in the series on Trypanosoma cruzi [6], the “Ratio IC50” value is “<=55”. For the same compound, the pIC50 in series [5] stood at 6.95.

Take `O=[N+]([O-])c1ncn(Cc2cn(-c3ccc(C(F)(F)F)cc3)nn2)n1`: in series [2], the CC50 at 72 h is more than 50 µM. The selectivity ratio in series [3] is more than 27.9. Further, the results for the IC50 in the series with Leishmania amazonensis and with Trypanosoma cruzi [4] were 4.7 µM and 3.6 µM, respectively.

Consider `N#Cc1ccc(-n2cc(Cn3cnc([N+](=O)[O-])n3)nn2)cc1`, for which, in series [2], the 50% cytotoxic concentration (CC50) at 72 h was more than 50 µM. For the same compound, the selectivity ratio in series [3] is more than 34.5. Moreover, the IC50 was 4.7 µM in the series on Leishmania amazonensis and 1.45 µM with Trypanosoma cruzi [4].

With `NS(=O)(=O)c1ccc(-n2cc(Cn3cnc([N+](=O)[O-])n3)nn2)cc1`, the CC50 at 72 h in series [2] was more than 50 µM. In addition, the selectivity ratio in series [3] was more than 1. Also, the values for the IC50 in the series on Leishmania amazonensis and in the series with Trypanosoma cruzi [4] were 4.7 µM and more than 50 µM, respectively.

Turning to `COc1cc(-n2cc(Cn3cnc([N+](=O)[O-])n3)nn2)cc(OC)c1OC`, in series [2], the CC50 at 72 h is more than 50 µM. The selectivity ratio in series [3] was more than 17.3. The IC50 with Leishmania amazonensis worked out at 4.7 µM; with Trypanosoma cruzi [4], 2.89 µM.

As for `N#Cc1cccc(-n2cc(Cn3cnc([N+](=O)[O-])n3)nn2)c1`, in series [2], the CC50 at 72 h is more than 50 µM. In addition, the selectivity ratio in series [3] is more than 6.8. Besides, the IC50 in the series on Leishmania amazonensis came out at 4.7 µM; in the series with Trypanosoma cruzi [4], 7.35 µM.

As to `O=[N+]([O-])c1ncn(Cc2cn(-c3cccc(Cl)c3)nn2)n1`, the CC50 at 72 h in series [2] is more than 50 µM. Also, the selectivity ratio in series [3] is more than 8.74. In addition, the IC50 in the series with Leishmania amazonensis was 4.7 µM; in the series on Trypanosoma cruzi [4] it was 5.72 µM.

On to `O=[N+]([O-])c1ncn(Cc2cn(-c3ccc(F)cc3)nn2)n1`, for which the CC50 at 72 h in series [2] was more than 50 µM. In addition, the selectivity ratio in series [3] was more than 45. The values for the IC50 in the series with Leishmania amazonensis and with Trypanosoma cruzi [4] were 4.7 µM and 1.11 µM, respectively. Further, the pIC50 in series [5] was determined as 5.95.

`COc1ccc(-n2cc(Cn3ccnc3[N+](=O)[O-])nn2)cc1OC`: the IC50 in the series with Trypanosoma cruzi [4] was determined as 0.65 µM.

`O=[N+]([O-])c1ncn(Cc2cn(-c3ccccc3)nn2)n1` returned a CC50 at 72 h in series [2] of more than 50 µM. The selectivity ratio in series [3] was more than 37. Further, the IC50 with Leishmania amazonensis stood at 4.7 µM; in the series on Trypanosoma cruzi [4] it was 1.35 µM. For the same compound, the pIC50 in series [5] was determined as 5.86.

Compound `O=[N+]([O-])c1ncn(Cc2cn(-c3ccc(Cl)c(C(F)(F)F)c3)nn2)n1` registered a CC50 at 72 h in series [2] of more than 50 µM. The selectivity ratio in series [3] was more than 5.05. The IC50 in the series with Leishmania amazonensis was 4.7 µM; with Trypanosoma cruzi [4], 9.89 µM.

`O=C(O)c1cccc(-n2cc(Cn3cnc([N+](=O)[O-])n3)nn2)c1`: the CC50 at 72 h in series [2] is more than 50 µM. The selectivity ratio in series [3] was more than 1. The values for the IC50 in the series on Leishmania amazonensis and with Trypanosoma cruzi [4] were 4.7 µM and more than 50 µM, respectively.

The compound `Cc1ccc(-n2cc(Cn3cnc([N+](=O)[O-])n3)nn2)cc1` gave a CC50 at 72 h in series [2] of more than 50 µM. Also, the selectivity ratio in series [3] was more than 152. Besides, the IC50 with Leishmania amazonensis came to 4.7 µM; in the series with Trypanosoma cruzi [4], 0.33 µM. Also, in series [5], the pIC50 was 6.48.

In series [2], `O=[N+]([O-])c1cccc(-n2cc(Cn3cnc([N+](=O)[O-])n3)nn2)c1` had a CC50 at 72 h of more than 50 µM. For the same compound, the selectivity ratio in series [3] was more than 4.1. Besides, the IC50 was determined as 4.7 µM in the series on Leishmania amazonensis and 24.4 µM in the series on Trypanosoma cruzi [4].

Consider `O=[N+]([O-])c1ncn(Cc2cn(-c3ccc(Oc4ccccc4)cc3)nn2)n1`, for which the CC50 at 72 h in series [2] was more than 50 µM. Further, in series [3], the selectivity ratio is more than 714. For the same compound, the IC50 is 4.7 µM with Leishmania amazonensis and 0.07 µM in the series on Trypanosoma cruzi [4]. Besides, the pIC50 in series [5] is listed as 7.15.

In turn, `O=[N+]([O-])c1ncn(Cc2cn(-c3ccc4c(c3)OCO4)nn2)n1` displayed a CC50 at 72 h in series [2] of more than 50 µM. Moreover, the selectivity ratio in series [3] is more than 3.62. For the same compound, the results for the IC50 in the series with Leishmania amazonensis and with Trypanosoma cruzi [4] were 89.5 µM and 13.8 µM, respectively.

On to `O=[N+]([O-])c1ncn(Cc2cn(-c3ccc(Cl)cc3)nn2)n1`, for which the cytotoxic concentration (CC50) at 72 h in series [2] was more than 50 µM. In addition, in series [3], the selectivity ratio was more than 161. For the same compound, the IC50 with Leishmania amazonensis was 4.7 µM; in the series on Trypanosoma cruzi [4] it was 0.31 µM. Also, the pIC50 in series [5] amounted to 6.5.

`COc1ccc(-n2cc(Cn3cnc([N+](=O)[O-])n3)nn2)cc1`: in series [2], the CC50 at 72 h is more than 50 µM. Also, in series [3], the selectivity ratio is more than 59.5. The results for the IC50 with Leishmania amazonensis and with Trypanosoma cruzi [4] were 4.7 µM and 0.84 µM, respectively. Besides, the pIC50 in series [5] is listed as 6.07.

As for `Nc1ccc2cc3ccccc3cc2c1` [2-AMINOANTHRACENE], the Activity in series [7] turned out to be 977.33.

With `O=C(Cn1ccnc1[N+](=O)[O-])NCc1ccccc1` [BENZNIDAZOLE], the CC50 at 72 h in series [2] was more than 50 µM. Also, in series [3], the selectivity ratio is more than 8.13.
